Reference: patent US7985753B2, “Substituted pyrazolo[1,5-A]pyrimidines as metabotropic glutamate receptor modulators” (MERZ PHARMA GmbH & Co. KGaA, priority 2006, dated 2011)

Each compound was assayed against T1, mGluR5 receptors (Rattus norvegicus, UniProt P31424) (assay: Cytosolic calcium studies with astrocytes (astrocyte culture test, FLIPR)). Conditions: rat primary astrocytes; L-quisqualate (100 nM); read-out: mGluR5_FLIPRr_rpA IC50.
T1 construct: endogenous in cells; host or cells: primary astrocytes from neocortex of Sprague-Dawley rat pups
T1 sequence (P31424 21-1203): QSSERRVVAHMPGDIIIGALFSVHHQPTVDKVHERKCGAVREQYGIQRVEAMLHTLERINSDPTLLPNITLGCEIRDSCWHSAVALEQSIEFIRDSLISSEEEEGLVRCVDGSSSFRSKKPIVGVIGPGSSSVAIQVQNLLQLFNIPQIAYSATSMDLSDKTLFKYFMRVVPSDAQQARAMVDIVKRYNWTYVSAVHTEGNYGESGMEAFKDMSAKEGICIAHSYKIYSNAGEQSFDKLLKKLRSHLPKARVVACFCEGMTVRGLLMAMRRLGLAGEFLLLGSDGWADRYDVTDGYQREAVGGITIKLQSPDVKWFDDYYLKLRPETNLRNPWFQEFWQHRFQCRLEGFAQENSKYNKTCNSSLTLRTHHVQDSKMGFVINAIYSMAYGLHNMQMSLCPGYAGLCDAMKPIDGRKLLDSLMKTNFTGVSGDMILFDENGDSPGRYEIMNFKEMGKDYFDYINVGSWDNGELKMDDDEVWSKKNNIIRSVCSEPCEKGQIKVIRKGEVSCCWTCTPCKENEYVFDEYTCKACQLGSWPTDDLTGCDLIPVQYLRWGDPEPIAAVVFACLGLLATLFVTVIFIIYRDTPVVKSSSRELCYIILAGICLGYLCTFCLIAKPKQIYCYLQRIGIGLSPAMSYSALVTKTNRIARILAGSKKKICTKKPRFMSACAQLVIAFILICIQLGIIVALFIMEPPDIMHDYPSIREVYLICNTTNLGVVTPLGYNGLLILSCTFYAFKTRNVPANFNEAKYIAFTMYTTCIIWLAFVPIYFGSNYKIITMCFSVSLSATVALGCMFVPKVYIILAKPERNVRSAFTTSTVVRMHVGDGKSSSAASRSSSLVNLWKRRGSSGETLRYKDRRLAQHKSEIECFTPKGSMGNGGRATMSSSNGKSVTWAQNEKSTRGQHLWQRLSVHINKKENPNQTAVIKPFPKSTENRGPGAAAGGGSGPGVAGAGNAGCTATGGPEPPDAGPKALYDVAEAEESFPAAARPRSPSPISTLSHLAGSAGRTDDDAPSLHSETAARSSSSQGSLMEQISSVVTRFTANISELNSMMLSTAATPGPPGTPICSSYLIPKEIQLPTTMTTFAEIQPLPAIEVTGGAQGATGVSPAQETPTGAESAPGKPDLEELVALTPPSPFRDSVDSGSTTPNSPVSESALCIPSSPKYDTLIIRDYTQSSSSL
Assay type: cell-based
Protocol: Primary astrocyte cultures are prepared from cortices of newborn rats as described by Booher and Sensenbrenner (1972, Neurobiology 2(3):97-105). Briefly, Sprague-Dawley rat pups (2-4 d old) are decapitated and neocortices are dissected, disintegrated with a nylon filter (pore size 80 μm) and carefully triturated. The cell suspension is plated on poly-D-lysine pre-coated flasks (Costar, Netherlands) and cultivated in Dulbecco's Modified Eagle's Medium (DMEM, Invitrogen, Germany) supplemented with 10% foetal calf serum (FCS, Sigma, Germany), 4 mM glutamine and 50 μg/ml gentamycin (both Biochrom, Germany) at 37° C. in a humidified atmosphere of 5% CO2/95% air for 7 d with exchanging the medium at day 2 and 6.
After 7 days in vitro (DIV), cells are shaken overnight at 250 rpm to remove oligodendrocytes and microglia. The next day, astrocytes are rinsed twice with CMF-PBS (calcium- and magnesium-free phosphate buffered saline, Biochrom, Germany), trypsinized and subplated on poly-D-lysine pre-coated 96-well plates (Greiner, Germany) at a density of 40,000 cells/well. 24 h after establishing the secondary culture the astrocytes are rinsed with PBS^++ (phosphate buffered saline, Biochrom, Germany), and fed with astrocyte-defined medium (ADM) consisting of DMEM containing 1×G^5-supplement (Invitrogen, Germany), 0.5 μg/ml heparan sulfate, and 1.5 μg/ml fibronectin (both Sigma, Germany) (Miller et al., (1993) Brain Res. 618(1):175-8). 3 d later the medium is exchanged and the cells incubated for another 2-3 d, so that at the time of experiments astrocytes are 14-15 DIV.
The increase of cytosolic calcium after stimulation with the mGluR5 agonist L-quisqualate is measured using a fluorometric imaging plate reader (FLIPR) and the Ca-Kit (both Molecular Devices). Prior to addition of agonist or antagonist the medium is aspirated and cells are loaded for 2 h at RT with 150 μl of loading buffer consisting of Ca-sensitive dye reconstituted in sodium chloride (123 mM), potassium chloride (5.4 mM), magnesium chloride (0.8 mM), calcium chloride (1.8 mM), D-glucose (15 mM), and HEPES (20 mM), pH 7.3. Subsequently, plates are transferred to FLIPR to detect calcium increase with the addition of L-quisqualate (100 nM) measured as relative fluorescence units (RFU). If antagonists are tested, these compounds are pre-incubated for 10 minutes at RT before addition of the respective agonist.
(§1) The fluorescence signal increase after addition of agonist reflects the increase of cytosolic calcium. Inconsistencies in the amount of cells per well are normalised by using the spatial uniformity correction of the FLIPR software. The mean of replicated temporal data (n=3-5) is calculated and used for graphical representation. For the evaluation of the pharmacology, the calcium changes in response to different concentrations of agonist or antagonist are determined using a maximum minus minimum (MaxMin) calculation.
(§2) All responses (RFU-values) are determined as percentage of control (=maximum response). EC50 and IC50 are calculated according the logistic equation using GraFit 5.0 (Erithacus Software, GB) or Prism 4.0 (GraphPad Software, USA).

| Compound | IC50 [nM] |
| --- | --- |
| CC1c2ccc(F)cc2CCN1C(=O)c1cc2ncc(Cl)cn2n1 (stereo not drawn) [drawing 446, (6-Chloro-pyrazolo[1,5-a]pyrimidin-2-yl)-(6-fluoro-1-methyl-3,4-dihydro-1H-isoquinolin-2-yl)-methanone] | 47 |
| CC1c2cccc(Br)c2CCN1C(=O)c1cc2ncc(Cl)cn2n1 (stereo not drawn) [drawing 451, (5-Bromo-1-methyl-3,4-dihydro-1H-isoquinolin-2-yl)-(6-chloro-pyrazolo[1,5-a]pyrimidin-2-yl)-methanone] | 65 |
| COc1ccc2c(c1)CCN(C(=O)c1cc3ncc(Cl)cn3n1)C2C (stereo not drawn) [drawing 450, (6-Chloro-pyrazolo[1,5-a]pyrimidin-2-yl)-(6-methoxy-1-methyl-3,4-dihydro-1H-isoquinolin-2-yl)-methanone] | 69 |
| O=C(c1cc2ncc(Cl)cn2n1)N1CCc2ncc(Br)cc2C1 [drawing 452, (3-Bromo-7,8-dihydro-5H-[1,6]naphthyridin-6-yl)-(6-chloro-pyrazolo[1,5-a]pyrimiddin-2-yl)-methanone] | 48 |
| COc1ccc2c(c1)CCN(C(=O)c1cc3ncc(Br)cn3n1)C2C (stereo not drawn) [drawing 449, (6-Bromo-pyrazolo[1,5-a]pyrimidin-2-yl)-(6-methoxy-1-methyl-3,4-dihydro-1H-isoquinolin-2-yl)-methanone] | 62 |
| CC1c2cc(F)ccc2CCN1C(=O)c1cc2ncc(Br)cn2n1 (stereo not drawn) [drawing 444, (6-Bromo-pyrazolo[1,5-a]pyrimidin-2-yl)-(7-fluoro-1-methyl-3,4-dihydro-1H-isoquinolin-2-yl)-methanone] | 46 |
| CC1CN(C(=O)c2cc3ncc(Br)cn3n2)C(C)c2ccccc21 (stereo not drawn) [drawing 448, (6-Bromo-pyrazolo[1,5-a]pyrimidin-2-yl)-(1,4-dimethyl-3,4-dihydro-1H-isoquinolin-2-yl)-methanone] | 83 |
| COc1cc2c(cc1O)CCN(C(=O)c1cc3ncc(Br)cn3n1)C2C (stereo not drawn) [drawing 443, 2-[(6-bromopyrazolo[1,5-a]pyrimidin-2-yl)carbonyl]-7-methoxy-1-methyl-1,2,3,4-tetrahydro-6-isoquinolinol] | 43 |
| CC1c2cccc(F)c2CCN1C(=O)c1cc2ncc(Br)cn2n1 (stereo not drawn) [drawing 445, (6-Bromo-pyrazolo[1,5-a]pyrimidin-2-yl)-(5-fluoro-1-methyl-3,4-dihydro-1H-isoquinolin-2-yl)-methanone] | 17 |
| CC1CN(C(=O)c2cc3ncc(Cl)cn3n2)C(C)c2ccccc21 (stereo not drawn) [drawing 447, (6-Chloro-pyrazolo[1,5-a]pyrimidin-2-yl)-(1,4-dimethyl-3,4-dihydro-1H-isoquinolin-2-yl)-methanone] | 64 |

These compounds were tested against T2, transmembrane allosteric modulatory sites of mGluR5 receptors in cortical membranes (Rattus norvegicus, UniProt P31424) (assay: [^3H]-MPEP binding assay in rat cortical membranes). Conditions: read-out: mGluR5_M_MPEP_r_CTX_IC50.
T2 construct: from tissue; host or cells: rat brain cortex membranes
T2 sequence (P31424 21-1203): as above
Protocol: Male Sprague-Dawley rats (200-250 g) are decapitated and their brains are removed rapidly. The cortex is dissected and homogenized in 20 volumes of ice-cold 0.32 M sucrose using a glass-Teflon homogenizer. The homogenate is centrifuged at 1000×g for 10 minutes. The pellet is discarded and the supernatant centrifuged at 20,000×g for 20 minutes. The resulting pellet is re-suspended in 20 volumes of distilled water and centrifuged for 20 minutes at 8000×g. Then the supernatant and the buffy coat are centrifuged at 48,000×g for 20 minutes in the presence of 50 mM Tris-HCl, pH 8.0. The pellet is then re-suspended and centrifuged two to three more times at 48,000×g for 20 minutes in the presence of 50 mM Tris-HCl, pH 8.0. All centrifugation steps are carried out at 4° C. After resuspension in 5 volumes of 50 mM Tris-HCl, pH 8.0 the membrane suspension is frozen rapidly at −80° C.
On the day of assay the membranes are thawed and washed four times by resuspension in 50 mM Tris-HCl, pH 8.0 and centrifugation at 48,000×g for 20 minutes and finally re-suspended in 50 mM Tris-HCl, pH 7.4. The amount of protein in the final membrane preparation (500-700 μg/ml) is determined according to the method of Lowry (Lowry O. H. et al. 1951. J. Biol. Chem. 193, 256-275).
Alternatively, assays are performed with [^3H]-MMPEP (2-(3-methoxyphenylethynyl)-6-methylpyridine hydrochloride) as radioligand. The incubations are continued at room temperature for 60 minutes (equilibrium is achieved under the conditions used). […] Incubations are terminated using a Millipore filter system. The samples are rinsed twice with 4 ml of ice-cold assay buffer over glass fibre filters (Schleicher & Schuell, Germany) under a constant vacuum. Following separation and rinse, the filters are placed into scintillation liquid (5 ml Ultima Gold, Perkin Elmer, Germany) and radioactivity retained on the filters is determined with a conventional liquid scintillation counter (Canberra Packard, Germany).

| Compound | IC50 [nM] |
| --- | --- |
| CC1CN(C(=O)c2cc3ncc(Br)cn3n2)C(C)c2ccccc21 (stereo not drawn) [drawing 458, (6-Bromo-pyrazolo[1,5-a]pyrimidin-2-yl)-(1,4-dimethyl-3,4-dihydro-1H-isoquinolin-2-yl)-methanone] | 91 |

Each compound was assayed against metabotropic glutamate receptor (mGluR5) (Homo sapiens, UniProt P41594) (assay: Cytosolic calcium studies with stably transfected cells (FLIPR)). Conditions: CHO-K1 cells expressing human mGluR5; agonist L-quisqualic acid; read-out: mGluR5_FLIPR_h_CHO_NAM IC50.
Chain of metabotropic glutamate receptor (mGluR5) (P41594 21-1212): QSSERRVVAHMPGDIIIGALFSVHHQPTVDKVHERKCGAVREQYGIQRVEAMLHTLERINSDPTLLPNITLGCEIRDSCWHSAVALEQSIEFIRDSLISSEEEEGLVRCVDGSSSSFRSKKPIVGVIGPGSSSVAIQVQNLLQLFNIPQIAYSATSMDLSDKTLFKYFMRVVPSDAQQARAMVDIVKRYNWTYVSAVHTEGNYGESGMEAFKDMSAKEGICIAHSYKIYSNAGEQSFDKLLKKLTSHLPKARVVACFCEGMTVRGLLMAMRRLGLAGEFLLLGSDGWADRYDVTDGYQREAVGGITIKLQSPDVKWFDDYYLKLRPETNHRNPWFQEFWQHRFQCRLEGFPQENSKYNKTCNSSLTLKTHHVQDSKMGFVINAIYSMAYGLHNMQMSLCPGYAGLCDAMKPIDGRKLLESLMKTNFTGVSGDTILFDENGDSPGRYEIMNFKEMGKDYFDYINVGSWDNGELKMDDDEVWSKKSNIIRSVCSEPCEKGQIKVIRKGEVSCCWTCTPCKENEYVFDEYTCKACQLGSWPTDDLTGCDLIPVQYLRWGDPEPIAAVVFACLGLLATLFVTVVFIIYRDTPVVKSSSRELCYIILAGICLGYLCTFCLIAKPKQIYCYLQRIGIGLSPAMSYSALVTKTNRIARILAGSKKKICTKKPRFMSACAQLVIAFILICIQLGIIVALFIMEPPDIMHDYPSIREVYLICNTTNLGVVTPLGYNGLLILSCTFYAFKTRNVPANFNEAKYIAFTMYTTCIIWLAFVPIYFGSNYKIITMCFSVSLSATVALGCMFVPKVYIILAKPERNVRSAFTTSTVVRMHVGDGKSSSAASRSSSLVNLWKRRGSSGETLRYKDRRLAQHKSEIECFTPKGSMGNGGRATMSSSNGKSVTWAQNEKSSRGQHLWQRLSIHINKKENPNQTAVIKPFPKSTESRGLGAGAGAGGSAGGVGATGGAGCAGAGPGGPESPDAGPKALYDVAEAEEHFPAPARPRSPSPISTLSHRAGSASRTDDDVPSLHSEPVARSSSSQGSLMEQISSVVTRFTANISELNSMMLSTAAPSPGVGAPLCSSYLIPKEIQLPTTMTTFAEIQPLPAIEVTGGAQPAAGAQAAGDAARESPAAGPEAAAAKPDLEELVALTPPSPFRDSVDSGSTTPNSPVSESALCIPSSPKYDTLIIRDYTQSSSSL
Assay type: cell-based
Design: expressed in transfected cells; host or cells: CHO-K1 cells, IPTG-inducible expression
Protocol: Cytosolic Calcium Studies with Stably Transfected Cells:
Chinese hamster ovary cells (CHO-K1 cells), stably transfected for inducible expression of a human metabotropic glutamate receptor mGluR5, are seeded into black clear bottom 96 well plates at a density of 35.000 cells per well. The standard growth medium used (Dulbecco's modified Eagle Medium, DMEM plus L-proline) contains the appropriate inducer isopropyl-β-D-thiogalactopyranosid (IPTG) to achieve optimal receptor expression. One day after seeding the growth medium is exchanged for reconstituted Ca-Kit (Molecular Devices, USA) and incubated for one hour. Ca-Kit is reconstituted in an assay buffer containing 20 mM HEPES pH 7.4, glutamic-pyruvate transaminase, pyridoxal phosphate and sodium pyruvate in Hank's balanced salt solution (HBBS). Agonistic compounds to the receptor elicit increases in cytosolic calcium which can be measured as increases in fluorescence signals by use of a fluorescence imaging plate reader (Molecular Devices).
as §1, §2

| Compound | IC50 [nM] |
| --- | --- |
| CC1c2cccc(Br)c2CCN1C(=O)c1cc2ncc(Cl)cn2n1 (stereo not drawn) [drawing 441, (5-Bromo-1-methyl-3,4-dihydro-1H-isoquinolin-2-yl)-(6-chloro-pyrazolo[1,5-a]pyrimidin-2-yl)-methanone] | 178 |
| COc1ccc2c(c1)CCN(C(=O)c1cc3ncc(Br)cn3n1)C2C (stereo not drawn) [drawing 439, (6-Bromo-pyrazolo[1,5-a]pyrimidin-2-yl)-(6-methoxy-1-methyl-3,4-dihydro-1H-isoquinolin-2-yl)-methanone] | 159 |
| COc1ccc2c(c1)CCN(C(=O)c1cc3ncc(Cl)cn3n1)C2C (stereo not drawn) [drawing 440, (6-Chloro-pyrazolo[1,5-a]pyrimidin-2-yl)-(6-methoxy-1-methyl-3,4-dihydro-1H-isoquinolin-2-yl)-methanone] | 155 |
| O=C(c1cc2ncc(Cl)cn2n1)N1CCc2ncc(Br)cc2C1 [drawing 442, (3-Bromo-7,8-dihydro-5H-[1,6]naphthyridin-6-yl)-(6-chloro-pyrazolo[1,5-a]pyrrimidin-2-yl)-methanone] | 167 |
| CC1CN(C(=O)c2cc3ncc(Cl)cn3n2)C(C)c2ccccc21 (stereo not drawn) [drawing 437, (6-Chloro-pyrazolo[1,5-a]pyrimidin-2-yl)-(1,4-dimethyl-3,4-dihydro-1H-isoquinolin-2-yl)-methanone] | 101 |
| COc1cc2c(cc1O)CCN(C(=O)c1cc3ncc(Br)cn3n1)C2C (stereo not drawn) [Example 1, (6-Bromo-pyrazolo[1,5-a]pyrimidin-2-yl)-(6-hydroxy-7-methoxy-1-methyl-3,4-dihydro-1H-isoquinolin-2-yl)-methanone] | 267 |
| CC1c2cccc(F)c2CCN1C(=O)c1cc2ncc(Br)cn2n1 (stereo not drawn) [drawing 435, (6-Bromo-pyrazolo[1,5-a]pyrimidin-2-yl)-(5-fluoro-1-methyl-3,4-dihydro-1H-isoquinolin-2-yl)-methanone] | 56.5 |
| CC1CN(C(=O)c2cc3ncc(Br)cn3n2)C(C)c2ccccc21 (stereo not drawn) [drawing 438, (6-Bromo-pyrazolo[1,5-a]pyrimidin-2-yl)-(1,4-dimethyl-3,4-dihydro-1H-isoquinolin-2-yl)-methanone] | 161 |
| CC1c2ccc(F)cc2CCN1C(=O)c1cc2ncc(Cl)cn2n1 (stereo not drawn) [drawing 436, (6-Chloro-pyrazolo[1,5-a]pyrimidin-2-yl)-(6-fluoro-1-methyl-3,4-dihydro-1H-isoquinolin-2-yl)-methanone] | 66.3 |
| CC1c2cc(F)ccc2CCN1C(=O)c1cc2ncc(Br)cn2n1 (stereo not drawn) [drawing 434, (6-Bromo-pyrazolo[1,5-a]pyrimidin-2-yl)-(7-fluoro-1-methyl-3,4-dihydro-1H-isoquinolin-2-yl)-methanone] | 43.8 |
